Reference: patent publication US11291659B2, “P38 kinase inhibitors reduce DUX4 and downstream gene expression for the treatment of FSHD” (Fulcrum Therapeutics, Inc., priority 2017, dated 2022)

Columns and labels:
[1] = system: active Caspase-3; experiment: Apoptosis by active Caspase-3 in FSHD myotubes; assay type: cell-based, Human; settings: FSHD1 and FSHD2 lines; 1 μM
Experimental: Briefly, cells were fixed in 4% paraformaldehyde and […] for 10 min at room temperature. Cells were permeabilized with PBST (1×PBS solution with 0.1% Triton X-100) before blocking with 10% Normal Donkey Serum or 3% BSA (NDS) in PBST. Cells were then incubated with appropriately diluted primary antibodies in PBST with 5% NDS for 1 hours at room temperature or 12 hours at 4° C., washed with PBST for 3 times at room temperature and then incubated with desired secondary antibodies in TBST with 5% NDS and DAPI to counter stain the nuclei. DUX4 was detected by immunocytochemistry using the E5-5 antibody in differentiated FSHD myotubes. Activated Caspase-3 was detected cell signaling antibody that we're using for ICC, Asp175 (https://www.cellsignal.com/products/primary-antibodies/cleaved-caspase-3-asp175-antibody/9661).
Apoptosis was measured by active Caspase-3 levels in FSHD myotubes in vitro as described in Materials and Methods. Apoptosis was detected in a sporadic manner in a subset of myotubes in culture as shown by the white circles and magnified region in FIG. 9A. Active Caspase-3 signal was quantified in FSHD myotubes that had been treated with FTX-1821 at different concentrations (FIG. 9B). […] No change in active Caspase-3 signal was observed following DMSO treatment.

[2] = system: myogenin (MYOG) mRNA; experiment: Myogenin (MYOG) mRNA expression by qPCR in FSHD myotubes (control gene); assay type: cell-based, Human
Experimental: For ASO or compound treatments cells were plate into 100 μL of Promocell growth medium containing ASO or compounds at the described concentrations.
On day 0, change to differentiation media. Remove plates from the incubator and aspirate the growth medium, Wash once with PBS, 100 μL for 96-wells and 1 mL for a 6-well plate, Add 100 μL or 2 mL of differentiation medium per well, 96- or 6-well respectively. Add antisense oligonucleotides or drug at the desire concentration and put back in the incubator. Fusion should start within day 1-2. Incubate for 3-4 days.
Cells were removed from the incubator and media aspirated. Quickly lysed following one of the following protocols: For lysis in 96-well plates direct lysis and one-step RT-Preamp qPCR protocol described below. For each 96-well prepare a mix containing: 19.5 μL Roche Realtime Ready lysis buffer, 0.25 μL RNAse inhibitor, 0.25 μL DNAseI (from Thermo not the included one in the kit). 20 μL of the mix was added to each well, mix 5 times and incubated 5 minutes at RT or alternatively shaken vigorously for 15 minutes. Lysis was observed under the microscope. Samples were frozen −80° C. at least for 15 minutes,
For qPCR, dilute 1:10 and use 2 μL for a 10 μL 1-step RT-qPCR reaction. For detection of GAPDH, RPLP0, TBP, MYOG, FRG1, MYH3, ACTN2, etc.). Per 10 μL reaction: RNA (1:10 dilution lysate) 2 μL, Fast Advanced Taqman Master Mix (2×) 5 μL, RT enzyme mix (40×) 0.25 μL, Taqman probe set (20×) 0.5 μL, H2O 2.25 μL. The following reaction protocol was run on the QuantStudio 7: 48° C. for 15 min, 50° C. for 2 min, 95° C. for 30 sec, 40×, 95° C. for 5 sec, 60° C. for 30 sec, then plates were read as specified by the manufacturer (Thermo). For 1-step RT-Preamplification used for detection of DUX4 downstream genes, i.e. MBD3L2, ZSCAN4, LEUTX, TRIM43, KHDC1L. POL2RA-VIC was used as Endogenous control). Per 10 μL reaction: RNA (1:10 dilution lysate) 2.25 μL, Taqman Pre-Amp Master Mix (2×) 5 μL, RT enzyme mix (40×) 0.25 μL, Taqman probe set (0.2×)*2.5 μL, * Pooling the TaqMan Assays: equal volumes of each 20× TaqMan® Gene Expression Assay, up to 100 assays were combined. For example, to pool 50 TaqMan assays, 10 μL of each assay were combined in a microcentrifuge tube. The pooled TaqMan assays were diluted using 1×TE buffer so that each assay is at a final concentration of 0.2×. […] The following program was run on the QuantStudio7: 50° C. for 2 min, 95° C. for 30 sec, 40×, 95° C. for 5 sec, 60° C. for 30 sec, plates were read as per the manufacturers specifications (Thermo).
After treatment, the control and treated cells were processed for realtime PCR quantification of MBD3L2 mRNA (DUX4 downstream gene) and myogenin (MYOG) mRNA (control) expression.

## Cn1c(=O)c(Oc2ccc(F)cc2F)cc2cnc(NC(CCO)CCO)nc21 [Pamapimod, 6-(2,4-difluorophenoxy)-2-((1,5-dihydroxypentan-3-yl)amino)-8-methylpyrido[2,3-d]pyrimidin-7(8H)-one]
[1]
  apoptosis (active caspase-3): reduction in apoptosis
[2]
  MYOG mRNA expression: no impact
